Here are results for 11 compounds from patent publication US20250186541A1, “DLL3 TARGETING PEPTIDES AND CONSTRUCTS THEREOF” (MARIANA ONCOLOGY INC., priority 2023, published 2025).

Molecules are shown by their SMILES. pKd: −log10 of the molar value. Numbered stars: 1 amine (or outer) side, 2 acyl side, 3 side chain; on linkers, the order of the positions; unused ones are H or OH. Bridge positions count the residues as written; N and C are the ends. Square brackets hold non-standard residues; d marks the D form. Peptide text beside a SMILES is read from it. * marks the point of attachment. Ala(piperidin-4-yl) = O=C([C@H](CC1CCN([*:3])CC1)N[*:1])[*:2]; DOTA = O=C(O)CN1CCN(CC(=O)O)CCN(CC(=O)*)CCN(CC(=O)O)CC1; 1Nal = N[C@@H](Cc1cccc2ccccc12)C(=O)O; 2Nal = N[C@@H](Cc1ccc2ccccc2c1)C(=O)O; oXylylene = c1ccc(C[*:2])c(C[*:1])c1; Gly(cPent) = N[C@H](C(=O)O)C1CCCC1; pXylylene = c1cc(C[*:2])ccc1C[*:1]; Ala(cPr) = N[C@@H](CC1CC1)C(=O)O; tBuAla = CC(C)(C)C[C@H](N)C(=O)O; 3Pal = N[C@@H](Cc1cccnc1)C(=O)O; 4Pal = N[C@@H](Cc1ccncc1)C(=O)O; Chg = N[C@H](C(=O)O)C1CCCCC1; αMeP = C[C@@]1(C(=O)O)CCCN1

This assay deals with T1, human DLL3 (Homo sapiens, UniProt Q9NYJ7).
T1 construct: biotin (biotinylated)
T1 sequence (Q9NYJ7 27-618): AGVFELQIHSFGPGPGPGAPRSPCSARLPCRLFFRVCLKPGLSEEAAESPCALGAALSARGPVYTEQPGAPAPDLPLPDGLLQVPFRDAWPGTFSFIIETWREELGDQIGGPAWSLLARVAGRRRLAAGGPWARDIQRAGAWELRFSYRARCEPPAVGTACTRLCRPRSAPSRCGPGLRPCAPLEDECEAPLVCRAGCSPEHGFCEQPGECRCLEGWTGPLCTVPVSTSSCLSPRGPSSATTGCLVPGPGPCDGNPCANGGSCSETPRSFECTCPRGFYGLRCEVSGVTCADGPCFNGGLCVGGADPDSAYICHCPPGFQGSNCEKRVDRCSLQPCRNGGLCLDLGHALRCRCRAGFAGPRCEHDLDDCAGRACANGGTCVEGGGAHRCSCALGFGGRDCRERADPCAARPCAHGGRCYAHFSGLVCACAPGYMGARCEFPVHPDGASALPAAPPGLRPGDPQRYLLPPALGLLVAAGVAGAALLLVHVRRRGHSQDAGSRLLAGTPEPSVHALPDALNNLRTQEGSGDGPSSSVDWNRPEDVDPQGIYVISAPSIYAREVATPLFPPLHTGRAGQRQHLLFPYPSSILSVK
Put plainly: Affinity determination by Surface Plasmon Resonance (SPR), Biacore, 1:1 binding model. To be noted: biotinylated human DLL3 on streptavidin chip, 25° C.; NB = nonbinding. An outline of the steps:
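SPR with biotinylated human DLL3 captured on a streptavidin chip, with a reference surface subtracted. Samples were injected at several concentrations at 100 μL/min in phosphate buffer with 137 mM NaCl, 2.7 mM KCl, 0.05% P20 and 2% DMSO. Kinetic and affinity constants came from a 1:1 binding fit.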
(SPR reads the build-up and loss of mass on a sensor chip optically.)

A word on the pKd: it is the Kd on a negative log10 scale, so that one unit is a factor of ten. Consider `CC(=O)N[C@H](C(=O)N[C@@H](CO)C(=O)N[C@@H](CC(=O)O)C(=O)N[C@H]1CSSC[C@@H](C(=O)N2CCC[C@@]2(C)C(=O)N[C@@H](Cc2cccnc2)C(=O)N[C@@H](CC(=O)O)C(=O)N[C@H](CCCCNC(=O)CN2CCN(CC(=O)O)CCN(CC(=O)O)CCN(CC(=O)O)CC2)C(N)=O)NC(=O)[C@H](CC(N)=O)NC(=O)[C@H](Cc2c[nH]c3ccccc23)NC(=O)[C@H](CCC(N)=O)NC(=O)[C@H](CC(C)C)NC(=O)[C@H](Cc2cccc3ccccc23)NC1=O)C1CCCCC1` [compound 136, Ac-(Chg)-S-D-C(3)-(1Nal)-L-Q-W-N-C(3)-(aMe-P)-(3Pya)-D-[D-Lys(DOTA)]-NH2] (Ac-[Chg]SDC[1Nal]LQWNC[αMeP][3Pal]D[dK](DOTA)-NH2; disulfide 4-10), for which the pKd is 7.66.

The compound `CC(=O)N[C@H](C(=O)N[C@@H](CO)C(=O)N[C@@H](CC(=O)O)C(=O)N[C@H]1CSSC[C@@H](C(=O)N2CCC[C@@]2(C)C(=O)N[C@@H](Cc2ccncc2)C(=O)N[C@@H](CC(=O)O)C(=O)N[C@H](CCCCNC(=O)CN2CCN(CC(=O)O)CCN(CC(=O)O)CCN(CC(=O)O)CC2)C(N)=O)NC(=O)[C@H](CC(N)=O)NC(=O)[C@H](Cc2c[nH]c3ccccc23)NC(=O)[C@H](CCC(N)=O)NC(=O)[C@H](CC(C)C)NC(=O)[C@H](Cc2cccc3ccccc23)NC1=O)C1CCCCC1` [compound 137, Ac-(Chg)-S-D-C(3)-(1Nal)-L-Q-W-N-C(3)-(aMe-P)-(4Pya)-D-[D-Lys(DOTA)]-NH2] (Ac-[Chg]SDC[1Nal]LQWNC[αMeP][4Pal]D[dK](DOTA)-NH2; disulfide 4-10) showed a pKd of less than 7.52.

Take `CC(=O)N[C@H](CO)C(=O)N[C@@H](CC(=O)O)C(=O)N[C@H]1CSSC[C@@H](C(=O)N2CCC[C@@]2(C)C(=O)N[C@@H](Cc2ccccc2)C(=O)N[C@@H](CC(=O)O)C(=O)N[C@H](CCCCNC(=O)CN2CCN(CC(=O)O)CCN(CC(=O)O)CCN(CC(=O)O)CC2)C(N)=O)NC(=O)[C@H](CC(N)=O)NC(=O)[C@H](Cc2c[nH]c3ccccc23)NC(=O)[C@H](CCC(N)=O)NC(=O)[C@H](C2CCCCC2)NC(=O)[C@H](Cc2cccc3ccccc23)NC1=O` [compound 138, Ac-(D-Ser)-D-C(3)-(1Nal)-(Chg)-Q-W-N-C(3)-(aMe-P)-F-D-D-Lys(DOTA)-CONH2] (Ac-[dS]DC[1Nal][Chg]QWNC[αMeP]FD[dK](DOTA)-NH2; disulfide 3-9): the negative-log Kd (pKd) was 8.98.

Turning to `CC(=O)N[C@H](CO)C(=O)N[C@@H](CC(=O)O)C(=O)N[C@H]1CSSC[C@@H](C(=O)N2CCC[C@@]2(C)C(=O)N[C@@H](Cc2ccccc2)C(=O)N[C@@H](CC(=O)O)C(=O)N[C@H](CCCCNC(=O)CN2CCN(CC(=O)O)CCN(CC(=O)O)CCN(CC(=O)O)CC2)C(N)=O)NC(=O)[C@H](CC(N)=O)NC(=O)[C@H](Cc2c[nH]c3ccccc23)NC(=O)[C@H](CCC(N)=O)NC(=O)[C@@H](CC(C)C)NC(=O)[C@H](Cc2cccc3ccccc23)NC1=O` [compound 139, Ac-(D-Ser)-D-C(3)-(1Nal)-(D-Leu)-Q-W-N-C(3)-(aMe-P)-F-D-D-Lys(DOTA)-CONH2] (Ac-[dS]DC[1Nal][dL]QWNC[αMeP]FD[dK](DOTA)-NH2; disulfide 3-9), the pKd is less than 7.52.

The compound `CC(=O)N[C@H](CO)C(=O)N[C@@H](CC(=O)O)C(=O)N[C@H]1CSSC[C@@H](C(=O)N2CCC[C@@]2(C)C(=O)N[C@@H](Cc2ccccc2)C(=O)N[C@@H](CC(=O)O)C(=O)N[C@H](CCCCNC(=O)CN2CCN(CC(=O)O)CCN(CC(=O)O)CCN(CC(=O)O)CC2)C(N)=O)NC(=O)[C@H](CC(N)=O)NC(=O)[C@H](Cc2c[nH]c3ccccc23)NC(=O)[C@H](CCC(N)=O)NC(=O)[C@H](CC2CC2)NC(=O)[C@H](Cc2cccc3ccccc23)NC1=O` [compound 140, Ac-(D-Ser)-D-C(3)-(1Nal)-(cPrA)-Q-W-N-C(3)-(aMe-P)-F-D-D-Lys(DOTA)-CONH2] (Ac-[dS]DC[1Nal][Ala(cPr)]QWNC[αMeP]FD[dK](DOTA)-NH2; disulfide 3-9) gave a pKd of 8.82.

On to `CC(=O)N[C@H](CO)C(=O)N[C@@H](CC(=O)O)C(=O)N[C@H]1CSSC[C@@H](C(=O)N2CCC[C@@]2(C)C(=O)N[C@@H](Cc2ccccc2)C(=O)N[C@@H](CC(=O)O)C(=O)N[C@H](CCCCNC(=O)CN2CCN(CC(=O)O)CCN(CC(=O)O)CCN(CC(=O)O)CC2)C(N)=O)NC(=O)[C@H](CC(N)=O)NC(=O)[C@H](Cc2c[nH]c3ccccc23)NC(=O)[C@H](CCC(N)=O)NC(=O)[C@H](C2CCCC2)NC(=O)[C@H](Cc2cccc3ccccc23)NC1=O` [compound 141, Ac-(D-Ser)-D-C(3)-(1Nal)-(cPenG)-Q-W-N-C(3)-(aMe-P)-F-D-D-Lys(DOTA)-CONH2] (Ac-[dS]DC[1Nal][Gly(cPent)]QWNC[αMeP]FD[dK](DOTA)-NH2; disulfide 3-9), for which the pKd is 8.93.

For `CC(=O)N[C@H](C(=O)N[C@@H](CCCCNC(=O)CN1CCN(CC(=O)O)CCN(CC(=O)O)CCN(CC(=O)O)CC1)C(=O)N[C@@H](CC(=O)O)C(=O)N[C@H]1CSSC[C@@H](C(=O)N2CCC[C@@]2(C)C(=O)N[C@@H](Cc2ccccc2)C(=O)N[C@@H](CC(=O)O)C(N)=O)NC(=O)[C@H](CC(N)=O)NC(=O)[C@H](Cc2c[nH]c3ccccc23)NC(=O)[C@H](CCC(N)=O)NC(=O)[C@H](CC(C)C)NC(=O)[C@H](Cc2cccc3ccccc23)NC1=O)C1CCCCC1` [compound 142, Ac-(Chg)-[L-Lys(DOTA)]-D-C(3)-(1Nal)-L-Q-W-N-C(3)-(aMe-P)-F-D-CONH2] (Ac-[Chg]K(DOTA)DC[1Nal]LQWNC[αMeP]FD-NH2; disulfide 4-10), the negative-log Kd (pKd) is 7.69.

With `CC(=O)N[C@H](C(=O)N[C@@H](CO)C(=O)N[C@@H](CC(=O)O)C(=O)N[C@H]1CSCc2ccccc2CSC[C@@H](C(=O)N2CCC[C@@]2(C)C(=O)N[C@@H](Cc2ccccc2)C(=O)N[C@@H](CC(=O)O)C(=O)N[C@H](CCCCNC(=O)CN2CCN(CC(=O)O)CCN(CC(=O)O)CCN(CC(=O)O)CC2)C(N)=O)NC(=O)[C@H](CC(N)=O)NC(=O)[C@H](Cc2c[nH]c3ccccc23)NC(=O)[C@H](CCC(N)=O)NC(=O)[C@H](CC(C)C)NC(=O)[C@H](Cc2cccc3ccccc23)NC1=O)C1CCCCC1` [compound 143, Ac-(Chg)-S-D-C(oDBX)-(1Nal)-L-Q-W-N-C(2)-(aMe-P)-F-D-D-Lys(DOTA)-CONH2] (Ac-[Chg]SDC[1Nal]LQWNC[αMeP]FD[dK](DOTA)-NH2; linker 4-10 via oXylylene), the “SPR KD (nM)” value is on record as “slow kon”.

In turn, `CC(=O)N[C@H](C(=O)N[C@@H](CO)C(=O)N[C@@H](CC(=O)O)C(=O)N[C@H]1CSCc2ccc(cc2)CSC[C@@H](C(=O)N2CCC[C@@]2(C)C(=O)N[C@@H](Cc2ccccc2)C(=O)N[C@@H](CC(=O)O)C(=O)N[C@H](CCCCNC(=O)CN2CCN(CC(=O)O)CCN(CC(=O)O)CCN(CC(=O)O)CC2)C(N)=O)NC(=O)[C@H](CC(N)=O)NC(=O)[C@H](Cc2c[nH]c3ccccc23)NC(=O)[C@H](CCC(N)=O)NC(=O)[C@H](CC(C)C)NC(=O)[C@H](Cc2cccc3ccccc23)NC1=O)C1CCCCC1` [compound 145, Ac-(Chg)-S-D-C(pDBX)-(1Nal)-L-Q-W-N-C(2)-(aMe-P)-F-D-D-Lys(DOTA)-CONH2] (Ac-[Chg]SDC[1Nal]LQWNC[αMeP]FD[dK](DOTA)-NH2; linker 4-10 via pXylylene) had a pKd of less than 7.52.

As for `CC(=O)N[C@H](C)C(=O)N[C@@H](CO)C(=O)N[C@@H](CC(=O)O)C(=O)N[C@H]1CSSC[C@@H](C(=O)N2CCC[C@@]2(C)C(=O)N[C@@H](Cc2ccccc2)C(=O)N[C@@H](CC(=O)O)C(=O)N[C@H](CCCCNC(=O)CN2CCN(CC(=O)O)CCN(CC(=O)O)CCN(CC(=O)O)CC2)C(N)=O)NC(=O)[C@H](CC(N)=O)NC(=O)[C@H](Cc2ccc3ccccc3c2)NC(=O)[C@H](CC2CCNCC2)NC(=O)[C@H](CC(C)(C)C)NC(=O)[C@H](Cc2cccc3ccccc23)NC1=O` [compound 146, Ac-(D-Ala)-S-D-C(3)-(1Nal)-(t-Bu-Ala)-[3-(4-piperidinyl)-Ala]-(2Nal)-N-C(3)-(aMe-P)-F -D-D-Lys(DOTA)-CONH2] (Ac-[dA]SDC[1Nal][tBuAla][Ala(piperidin-4-yl)][2Nal]NC[αMeP]FD[dK](DOTA)-NH2; disulfide 4-10), the pKd is 9.54.

Turning to `CC(=O)N[C@H](C(=O)N[C@@H](CO)C(=O)N[C@@H](CC(=O)O)C(=O)N[C@H]1CSSC[C@@H](C(=O)N2CCC[C@@]2(C)C(=O)N[C@@H](Cc2ccccc2)C(=O)N[C@@H](CC(=O)O)C(=O)N[C@H](CCCCNC(=O)CN2CCN(CC(=O)O)CCN(CC(=O)O)CCN(CC(=O)O)CC2)C(N)=O)NC(=O)[C@H](CC(N)=O)NC(=O)[C@H](Cc2ccc3ccccc3c2)NC(=O)[C@H](CCC(N)=O)NC(=O)[C@H](CC(C)(C)C)NC(=O)[C@H](Cc2cccc3ccccc23)NC1=O)C1CCCCC1` [compound 148, Ac-(Chg)-S-D-C(3)-(1Nal)-(t-Bu-Ala)-Q-(2Nal)-N-C(3)-(aMe-P)-F -D-D-Lys(DOTA)-CONH2] (Ac-[Chg]SDC[1Nal][tBuAla]Q[2Nal]NC[αMeP]FD[dK](DOTA)-NH2; disulfide 4-10), the pKd is 9.54.
